According to patent US12377087B2, “Compounds for the treatment of cancer” (UNIVERSITY OF LOUISVILLE RESEARCH FOUNDATION, INC., priority 2015, dated 2025):

Legend:
LLC xenografts [1] = test: intratumoral F2,6BP in LLC xenografts; format: in vivo, C57BL/6 mice; conditions: 120 mg/kg by gavage daily, 10 days
Protocol: F2,6BP measurements: Cells or tissues were prepared as previously described and F2,6BP content measured using a coupled enzyme reaction following the method of Van Schaftingen et at (Van Schaftingen E et al. A kinetic study of pyrophosphate: fructose-6-phosphate phosphotransferase from potato tubers. Application to a microassay of fructose 2,6-bisphosphate. Eur J Biochem 1982 December; 129(1): 191-5) and normalized to total cellular protein measured by the bicinchoninic acid assay (BCA, Thermo Scientific). […] In order to measure F2,6BP, cells were harvested, washed with PBS, lysed in NaOH/Tris acetate by heating at 80° C. and lysates neutralized to pH 7.2. F2,6BP content was measured using a coupled enzyme reaction following the method of Van Schaftingen et al (Eur J Biochem. 1982; 129(1): 191-195). The F2,6BP concentration was normalized to total cellular protein measured by the bicinchoninic acid assay (BCA, Thermo Scientific) All data are expressed as the mean±SD of three experiments. Statistical significance was assessed by the two-sample t test (independent variable).
At the end of the experiment, animals were euthanized, tumors removed and sections fixed in 10% formaldehyde for immunohistochemistry or snap-frozen in liquid nitrogen for analyses. […]

LLC xenografts [2] = test: FDG uptake by micro-positron emission tomography in tumor-bearing mice; format: in vivo; conditions: 120 mg/kg by gavage, once
Protocol: At the end of the experiment, animals were euthanized, tumors removed and sections fixed in 10% formaldehyde for immunohistochemistry or snap-frozen in liquid nitrogen for analyses. Subsets of tumor-bearing mice (n=3) were injected i.p. with 2-[^18F]-fluoro-2-deoxyglucose (FDG, 150 μCi, 100 μl) and imaged by micro-positron emission tomography as previously described. Regions of interest in the tumors and cerebellum were quantified in quadruplicate and expressed as the mean±SD of the tumor:cerebellar FDG uptake ratio. Animal experiments were approved by the University of Louisville Institutional Animal Care and Use Committee.

PFKFB3 = PFKFB3 (Homo sapiens, UniProt Q16875); test: kinase activity of PFKFB3; format: biochemical; conditions: 10 μM
Lewis lung carcinomas = test: Lewis lung carcinoma tumor growth in mice; format: in vivo, C57BL/6 mice
H460 cells [3] = test: Glycolysis assay (3H2O from 5-[3H]glucose) in H460 cells; format: cell-based, human; conditions: H460, 10 μM 5MPN, 6-72 hours
Protocol: Cells growing in 6-well plates were incubated in 500 μl of complete medium containing 1 μCi of 5-[^3H]glucose per well for 60 min in 5% CO2 at 37° C. Media was collected, ^3H2O formed via glycolysis from the 5-[^3H]glucose measured and counts normalized as previously described. For example, the medium was then collected and centrifuged to pellet any suspended cells. To separate the ^3H2O formed via glycolysis from the 5-[^3H]glucose added to the medium, an evaporation technique in a sealed system was utilized. Briefly, 150 μl aliquots of medium were added to open tubes that were placed upright inside scintillation vials containing 1 ml of H2O. The scintillation vials were sealed, and the ^3H2O produced by glycolysis through enolase and released to the medium was allowed to equilibrate with the H2O in the outer vial for 48 h at 37° C. The amounts of ^3H2O that had diffused into the surrounding H2O was measured on a Tri-Carb 2910 liquid scintillation analyzer (Perkin Elmer) and compared with ^3H2O and 5-[^3H]glucose standards. Protein concentration was determined using the BCA assay and counts were normalized to protein concentration. All data are expressed as the mean±SD of three experiments. Statistical significance was assessed by the two-sample t test (independent variable).

H441 = test: viable cell count of H441 cells; format: cell-based; conditions: H441, 48 hours
Protocol: (§1) Cell Viability: Cells were incubated in 20% trypan blue (Sigma) for 5 minutes. Cells excluding trypan blue were counted using a standard hemocytometer (Hausser Scientific) to determine total numbers of viable cells. Data are expressed as mean±SD of three experiments.

H1299 = test: viable cell count of H1299 cells; format: cell-based; conditions: H1299, 48 hours
Protocol: as §1

H522 = test: viable cell count of H522 cells; format: cell-based; conditions: H522, 48 hours
Protocol: as §1

H460 cells [4] = test: apoptosis by flow cytometry (annexin V / propidium iodide) in H460 cells; format: cell-based, human; conditions: H460, 10 μM 5MPN
Protocol: Flow Cytometry: To measure apoptosis, cells were stained with annexin V and propidium iodide and examined as previously described. […] DMSO used as vehicle. For cell cycle experiments, cells were detached, washed with cold PBS and fixed in 70% ethanol (4° C. 30 minutes). The cells then were pelleted by centrifugation, resuspended in PBS containing PI and RNase A, incubated at 37° C. in the dark for 30 minutes and analyzed by flow cytometry (BD FACSCalibur). Data were analyzed using FlowJo software (TREE STAR Inc.). Results were calculated as the mean±SD of three experiments.

LLC xenografts [5] = test: Ki67 immunohistochemistry of LLC xenografts; format: in vivo, C57BL/6 mice; conditions: 120 mg/kg by gavage daily, two weeks
Protocol: Immunohistochemistry: Formalin-fixed, paraffin-embedded tissue sections were processed as previously described then incubated with anti-Ki-67 primary antibody (Abeam) overnight, followed by HRP-linked goat anti-rabbit secondary antibody (1:300. Pierce). Sections were developed with 3,3′-diaminobenzidine tetrahydrochloride, counterstained, scanned and analyzed with the positive pixel count algorithm as previously described. Data are depicted as % positive pixels/total pixels±SD.

MDA-MB-231 = test: viable cell count of MDA-MB-231 cells; format: cell-based; conditions: MDA-MB-231, 48 hours
Protocol: as §1

human recombinant PFKFB4 = human recombinant PFKFB4 (Homo sapiens, UniProt Q16877); test: fructose-6-phosphate kinase activity of human recombinant PFKFB4 (in vitro kinase assay); format: biochemical
Protocol: Kinase assays: The fructose-6-phosphate kinase activity of human recombinant PFKFB4 in the presence of DMSO±indicated 5MPN concentrations was assayed as previously described. The activity of 5MPN against 97 kinases was examined using a commercially available active-site dependent competition binding assay core service (KINOMEscanEDGE) that quantifies the capacity of lest agents to compete with an immobilized, active-site directed ligand using a DNA-tagged kinase and immobilized ligand and compound. For example, enzyme inhibition was studies using a ADP-Glo assay. […] ADP is converted into ATP, which is converted into light by a luciferase.

Sequence of human recombinant PFKFB4 (Q16877 whole entry): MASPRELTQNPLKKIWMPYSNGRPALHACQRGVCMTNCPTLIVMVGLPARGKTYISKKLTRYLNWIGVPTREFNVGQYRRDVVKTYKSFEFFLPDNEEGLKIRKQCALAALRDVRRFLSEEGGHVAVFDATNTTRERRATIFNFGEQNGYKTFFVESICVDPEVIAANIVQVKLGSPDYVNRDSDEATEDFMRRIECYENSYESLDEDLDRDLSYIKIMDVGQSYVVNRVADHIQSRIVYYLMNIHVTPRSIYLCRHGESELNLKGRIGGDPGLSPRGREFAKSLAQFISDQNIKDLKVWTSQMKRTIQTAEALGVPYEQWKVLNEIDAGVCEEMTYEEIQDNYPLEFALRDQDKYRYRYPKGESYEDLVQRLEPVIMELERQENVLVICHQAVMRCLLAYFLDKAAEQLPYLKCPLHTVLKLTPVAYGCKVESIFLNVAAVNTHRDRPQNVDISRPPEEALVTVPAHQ
Sequence of PFKFB3 (Q16875 whole entry, species assumed): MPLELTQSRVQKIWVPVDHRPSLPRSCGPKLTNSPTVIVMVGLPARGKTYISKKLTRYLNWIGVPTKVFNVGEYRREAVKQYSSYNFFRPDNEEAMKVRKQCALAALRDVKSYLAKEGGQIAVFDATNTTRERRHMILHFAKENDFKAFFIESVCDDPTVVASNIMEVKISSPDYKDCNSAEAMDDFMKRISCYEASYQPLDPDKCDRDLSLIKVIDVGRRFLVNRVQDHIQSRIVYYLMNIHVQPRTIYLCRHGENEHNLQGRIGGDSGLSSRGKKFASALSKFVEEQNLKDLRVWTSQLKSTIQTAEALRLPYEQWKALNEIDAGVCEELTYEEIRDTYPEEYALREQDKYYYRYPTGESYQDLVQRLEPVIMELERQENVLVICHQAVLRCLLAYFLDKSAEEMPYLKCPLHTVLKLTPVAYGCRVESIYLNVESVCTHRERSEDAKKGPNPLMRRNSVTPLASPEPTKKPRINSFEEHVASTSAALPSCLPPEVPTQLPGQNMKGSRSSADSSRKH

SMILES: COc1cccc2c(NCCCCCO[N+](=O)[O-])ccnc12 [5MPN, 5-[(8-methoxyquinolin-4-yl)amino]pentyl nitrate]
- intratumoral F2,6BP (LLC xenografts [1]): marked reduction
- 2-[18F]-fluoro-2-deoxyglucose uptake, positron emission tomography (LLC xenografts [2]): marked reduction
- inhibition of PFKFB3 kinase activity (PFKFB3): no inhibition of kinase activity
- body weight (Lewis lung carcinomas; LLC-bearing C57BL/6 mice, 120 mg/kg oral daily): without affecting body weight
- tumor growth of Lewis lung carcinomas (Lewis lung carcinomas; syngeneic C57BL/6 mice, 120 mg/kg daily by gavage, two weeks): suppressed the growth
- glycolysis (H460 cells [3]): reduced
- growth, viable cells (H441): dose-dependent reduction in growth
- growth, viable cells (H1299): dose-dependent reduction in growth
- growth, viable cells (H522): dose-dependent reduction in growth
- apoptotic cells (H460 cells [4]): minimal increase
- Ki67-positive cells in LLC xenografts (LLC xenografts [5]): reduction in Ki67-positive cells
- growth, viable cells (MDA-MB-231): dose-dependent reduction in growth
- PFKFB4 activity (kinase activity of recombinant PFKFB4) (human recombinant PFKFB4; 0, 0.1, 1 or 10 μM 5MPN, F6P 0-2000 μmol/L): significantly inhibited
- mode of inhibition, Lineweaver-Burk analyses (human recombinant PFKFB4; F6P binding site): competitive inhibitor
